Data from patent US8703752B2 (priority 2003, dated 2014).

Legend:
[1] = test system: Hedgehog protein signaling pathway; test: Inhibition of Shh-induced differentiation of C3H10T1/2 cells (alkaline phosphatase activity, OD 415 nm); assay type: cell-based, mouse; conditions: for inhibition of the alkaline phosphatase activity induced by the overexpression of Shh: 10 μM, 5 days, C3H10T1/2 cells transfected with Shh plasmid pRK5
Experimental: The differentiation of the C3H10T1/2 cells, which is accompanied by induction of alkaline phosphatase activity, is then evaluated by measuring the optical density at 415 nm, in the presence of the alkaline phosphatase substrate, para-nitrophenyl phosphate. The values indicated correspond to the mean±standard error (n=4), and
The inhibition of differentiation of the C3H10T1/2 cells is expressed through the percentage alkaline phosphatase activity, relative to the nontreated cells (maximum activity=100%). The values indicated correspond to the mean±standard error (n=4) of two independent experiments.
The C3H10T1/2 pluripotent fibroblast cell line (ATCC) is cultured under the conditions recommended by the ATCC. C3H10T1/2 cells were transfected with the plasmid pRK5 encoding the mouse Shh protein (Taipale et al., Nature, 2001, 411, 349-354), using calcium phosphate, according to conventional protocols.

mammalian embryos = conditions: cited from earlier work
glucocorticoid receptors = glucocorticoid receptors (Homo sapiens, UniProt P04150); conditions: cited from earlier work
Sequence of glucocorticoid receptors (P04150 whole entry): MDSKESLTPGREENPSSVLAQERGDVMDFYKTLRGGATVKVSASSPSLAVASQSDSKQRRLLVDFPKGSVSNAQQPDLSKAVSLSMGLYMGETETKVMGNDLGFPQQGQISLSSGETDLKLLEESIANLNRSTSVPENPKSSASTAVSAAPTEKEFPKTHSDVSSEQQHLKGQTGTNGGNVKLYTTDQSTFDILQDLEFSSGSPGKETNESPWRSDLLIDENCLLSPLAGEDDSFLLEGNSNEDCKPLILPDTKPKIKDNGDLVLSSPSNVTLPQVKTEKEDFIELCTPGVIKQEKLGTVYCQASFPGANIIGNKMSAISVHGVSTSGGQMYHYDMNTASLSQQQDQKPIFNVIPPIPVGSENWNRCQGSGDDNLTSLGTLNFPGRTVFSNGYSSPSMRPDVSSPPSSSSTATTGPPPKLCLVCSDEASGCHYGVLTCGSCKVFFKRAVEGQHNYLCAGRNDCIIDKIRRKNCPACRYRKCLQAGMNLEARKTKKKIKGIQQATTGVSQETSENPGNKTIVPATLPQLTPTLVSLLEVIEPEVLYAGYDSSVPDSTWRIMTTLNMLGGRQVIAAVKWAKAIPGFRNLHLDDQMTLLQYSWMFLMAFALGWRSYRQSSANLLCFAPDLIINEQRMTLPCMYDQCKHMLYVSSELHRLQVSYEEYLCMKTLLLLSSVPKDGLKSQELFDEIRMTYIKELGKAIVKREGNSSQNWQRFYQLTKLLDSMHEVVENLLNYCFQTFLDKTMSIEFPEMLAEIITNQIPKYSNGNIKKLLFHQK

Row | SMILES | inhibition of the alkaline phosphatase activity induced by the overexpression of Shh [1] | teratogenic effect (mammalian embryos) | IC50 ([1]; C3H10T1/2 cells transfected with Shh plasmid pRK5, treated 5 days, 1 nM to 10 μM, alkaline phosphatase activity, mean±standard error (n=4), two experiments, read-out: concentration that inhibits 50% of cell differentiation (IC50)) [µM] | affinity for glucocorticoid receptors (glucocorticoid receptors)
1 | CC1=C2C[C@H]3[C@@H](CC=C4C[C@@H](O)CC[C@@]43C)[C@@H]2CC[C@]12O[C@@H]1C[C@H](C)CN[C@H]1[C@H]2C [cyclopamine] | completely inhibited | teratogenic agent that causes holoprosencephaly and cyclopia | – | –
2 | CC#C[C@]1(O)CC[C@H]2[C@@H]3CCC4=CC(=O)CCC4=C3[C@@H](c3ccc(N(C)C)cc3)C[C@@]21C [mifepristone, 17β-hydroxy-11β-(4-dimethylaminophenyl)-17α-(prop-1-ynyl)estra-4,9-dien-3-one] | completely inhibits | devoid of any teratogenic effect | 3.7 | strong affinity
